Data as given in PMC7587356, “High-Throughput Screening for Inhibitors of the SARS-CoV-2 Protease Using a FRET-Biosensor” (Molecules, 2020).
Counter-ions that a name gives are not always drawn. Like-named read-outs stand apart in the source and are kept apart here.

Molecular target: SARS-CoV-2 3CLpro (Severe acute respiratory syndrome coronavirus 2, UniProt P0DTD1)
Assay: biochemical
Type: biochemical
Set-up: Replicate_1 / Replicate_2 / mean / mean (LOPAC_screen_w_protease): unit not given here
[1] = 4 h, LOPAC1280 primary screen with protease, 5 µM compound, replicate 1, read-out: Replicate_1 (LOPAC_screen_w_protease)
[2] = 4 h, LOPAC1280 primary screen with protease, 5 µM compound, replicate 2, read-out: Replicate_2 (LOPAC_screen_w_protease)
[3] = LOPAC1280 primary screen with protease, 5 µM compound, mean of two replicates
[4] = sheet LOPAC_screen_w_protease, primary screen with protease, mean of two replicates
[5] = sheet LOPAC_screen_w_protease, primary screen with protease, replicate 1
[6] = sheet LOPAC_screen_w_protease, primary screen with protease, replicate 2
[7] = sheet LOPAC_screen_w_protease, LOPAC1280 primary screen at 5 µM, with protease, mean of the two replicates
[8] = sheet LOPAC_screen_w_protease, LOPAC1280 primary screen at 5 µM, with protease, replicate 1
[9] = sheet LOPAC_screen_w_protease, LOPAC1280 primary screen at 5 µM, with protease, replicate 2
[10] = sheet LOPAC_screen_w_protease, LOPAC1280 primary screen with protease, 5 µM compound, mean of the two replicates
[11] = sheet LOPAC_screen_w_protease, LOPAC1280 primary screen with protease, 5 µM compound, replicate 1
[12] = sheet LOPAC_screen_w_protease, LOPAC1280 primary screen with protease, 5 µM compound, replicate 2
[13] = 4 h, sheet LOPAC_screen_w_protease, LOPAC1280 at 5 µM, mean of two replicates, read-out: mean
[14] = 4 h, sheet LOPAC_screen_w_protease, LOPAC1280 at 5 µM, replicate 1, read-out: Replicate_1
[15] = 4 h, sheet LOPAC_screen_w_protease, LOPAC1280 at 5 µM, replicate 2, read-out: Replicate_2

O=C(O)c1cc(O)cc(C(=O)O)n1 [Chelidamic acid]
inhibition at 5 µM (4 h, sheet LOPAC_screen_w_protease, primary screen with protease, compound at 5 µM, mean of two replicates, read-out: mean): 3.14%
inhibition at 5 µM (4 h, sheet LOPAC_screen_w_protease, primary screen with protease, compound at 5 µM, replicate 1, read-out: Replicate_1): 2.7%
inhibition at 5 µM (4 h, sheet LOPAC_screen_w_protease, primary screen with protease, compound at 5 µM, replicate 2, read-out: Replicate_2): 3.58%

O=P(O)(O)C(Cl)(Cl)P(=O)(O)O [Clodronic acid]
inhibition at 5 µM [1]: 2.04%
inhibition at 5 µM [2]: 1.36%
mean (LOPAC_screen_w_protease) [3]: 1.697

Cl.O=C(OC1CCN(CCCl)CC1)C(c1ccccc1)c1ccccc1
mean [4]: 2.3143
Replicate_1 [5]: 3.423
Replicate_2 [6]: 1.205

COc1ccc(CN(CCN(C)C)c2ccccn2)cc1 [Pyrilamine maleate]
inhibition at 5 µM (4 h, sheet LOPAC_screen_w_protease, primary screen with protease, mean of two replicates, read-out: mean): 2.44%
inhibition at 5 µM (4 h, sheet LOPAC_screen_w_protease, primary screen with protease, replicate 1, read-out: Replicate_1): 1.24%
inhibition at 5 µM (4 h, sheet LOPAC_screen_w_protease, primary screen with protease, replicate 2, read-out: Replicate_2): 3.63%

CC(C)(C)NCC(O)COc1cccc2[nH]c(=O)[nH]c12.Cl (racemic) [(±)-CGP-12177A hydrochloride]
mean (sheet LOPAC_screen_w_protease, LOPAC1280 at 5 µM, mean of two replicates): 1.308
Replicate_1 (sheet LOPAC_screen_w_protease, LOPAC1280 at 5 µM, replicate 1): 3.897
Replicate_2 (sheet LOPAC_screen_w_protease, LOPAC1280 at 5 µM, replicate 2): -1.282

CC(C)(C)c1o[nH]c(=O)c1CC(N)C(=O)O (stereo not shown) [ATPA]
mean [7]: 0.4603
Replicate_1 [8]: -0.08438
Replicate_2 [9]: 1.005

CC(N)(C(=O)O)c1ccc(C(=O)O)cc1 (racemic) [(±)-alpha-Methyl-4-carboxyphenylglycine]
mean [10]: 4.794
Replicate_1 [11]: 3.648
Replicate_2 [12]: 5.939

O=c1c(O)c(-c2ccc(O)c(O)c2)oc2cc(O)cc(O)c12 [quercetin, reference compound]
inhibition at 5 µM (read-out: inhibition of 3CLpro in the primary screen): 1.9%

O=C1Nc2ccc(I)cc2/C1=C/c1cc(Br)c(O)c(Br)c1 [GW5074]
mean [10]: 5.786
Replicate_1 [11]: 6.4599
Replicate_2 [12]: 5.112

Nc1nc(OCc2ccccc2)c2nc[nH]c2n1 [O6-benzylguanine]
inhibition at 5 µM [1]: 0.721%
inhibition at 5 µM [2]: 2.08%
mean (LOPAC_screen_w_protease) [3]: 1.401

COc1cc2ncnc(Nc3cccc(Cl)c3)c2cc1OC [Tyrphostin AG 1478]
inhibition at 5 µM [13]: 1.16%
inhibition at 5 µM [14]: 1.39%
inhibition at 5 µM [15]: 0.935%

CCOC(=O)C1=C[C@]2(CC)CCCN3CCc4c(n1c1ccccc41)[C@@H]32 [Vinpocetine]
inhibition at 5 µM [13]: 0.949%
inhibition at 5 µM [14]: 0.618%
inhibition at 5 µM [15]: 1.28%

CC(=N)NCCC[C@H](N)C(=O)O.Cl
mean (sheet LOPAC_screen_w_protease, primary screen with protease, compound at 5 µM, mean of two replicates): 2.835
Replicate_1 (sheet LOPAC_screen_w_protease, primary screen with protease, compound at 5 µM, replicate 1): 2.586
Replicate_2 (sheet LOPAC_screen_w_protease, primary screen with protease, compound at 5 µM, replicate 2): 3.084

Br.CCCN1CCc2cc(O)cc3c2[C@H]1Cc1ccc(O)c(O)c1-3
mean (LOPAC screen with protease) (sheet LOPAC_screen_w_protease, primary screen at 5 µM, mean of two replicates): 94.9167
Replicate_1 (LOPAC screen with protease) (sheet LOPAC_screen_w_protease, primary screen at 5 µM, replicate 1): 94.651
Replicate_2 (LOPAC screen with protease) (sheet LOPAC_screen_w_protease, primary screen at 5 µM, replicate 2): 95.1824

N[C@@H](Cc1c[nH]c2ccccc12)C(=O)O [L-Tryptophan]
inhibition at 5 µM (4 h, sheet LOPAC_screen_w_protease, LOPAC1280 primary screen at 5 µM, with protease, mean of the two replicates, read-out: mean): 0.58%
inhibition at 5 µM (4 h, sheet LOPAC_screen_w_protease, LOPAC1280 primary screen at 5 µM, with protease, replicate 1, read-out: Replicate_1): 2.12%
inhibition at 5 µM (4 h, sheet LOPAC_screen_w_protease, LOPAC1280 primary screen at 5 µM, with protease, replicate 2, read-out: Replicate_2): -0.955%

Cl.NCCCCC(=O)O [5-Aminovaleric acid hydrochloride]
mean (sheet LOPAC_screen_w_protease, primary screen with protease, 5 µM, mean of two replicates): 0.3592
Replicate_1 (sheet LOPAC_screen_w_protease, primary screen with protease, 5 µM, replicate 1): 0.7789
Replicate_2 (sheet LOPAC_screen_w_protease, primary screen with protease, 5 µM, replicate 2): -0.06046

Cc1oncc1C(=O)Nc1ccc(C(F)(F)F)cc1 [Leflunomide]
inhibition at 5 µM [13]: 1.27%
inhibition at 5 µM [14]: 0.0888%
inhibition at 5 µM [15]: 2.44%

CCCN1CCO[C@@H]2c3cc(O)ccc3OC[C@H]21.Cl [S(+)-PD 128,907 hydrochloride]
mean [7]: 0.4405
Replicate_1 [8]: 0.5719
Replicate_2 [9]: 0.3091

C[N+](C)(C)CCOC(=O)CBr.[Br-] [Bromoacetylcholine bromide]
mean [4]: 2.401
Replicate_1 [5]: 0.6425
Replicate_2 [6]: 4.16
